These are literature values, as cited in patent US6403120B1 (Wyeth, priority 1996, dated 2002).

The conditions of the data set: plural daily dosing regimen.

As to `COc1ccc(C(CN(C)C)C2(O)CCCCC2)cc1.Cl` (centres unmarked) [venlafaxine hydrochloride, 1-[2-(dimethylamino)-1-(4methoxyphenyl)ethyl]cyclohexanol hydrochloride], the patients experiencing nausea result was “about forty five” and the patients with vomiting result is on record as “about seventeen”.
